Data published in patent publication US9174982B2, “Apoptosis-inducing agents for the treatment of cancer and immune and autoimmune diseases” (AbbVie Inc., priority 2009, dated 2015).

Tests used:
[1] = biological target: GST-Bcl-2 (Homo sapiens (Human), UniProt P10415); assay: Time Resolved-Fluorescence Resonance Energy Transfer (TR-FRET) Bcl-2 binding assay; conditions: GST-Bcl-2 1 nM, F-Bak peptide probe 100 nM, Tb-anti-GST 1 nM; 3 hours at room temperature; < means below limit of detection
[2] = test system: RS4;11 cells; assay: RS4;11 cell viability assay; type: cell-based; conditions: 10% human serum, 48 hours, CellTiter Glo
Description: Cell cytotoxicity EC50 values were assessed using CellTiter Glo (Promega) according to the manufacturer's recommendations. The EC50 values were determined as a percentage of viable cells following treatment compared to the untreated control cells.

[3] = test system: RS4;11 cells; conditions: Blood, 2008, Vol. 111, 2300-2309; cited from earlier work
[4] = stability of coupling product during workup and chromatography, monitored by HPLC/MS; type: physicochemical; conditions: peak disappeared during workup and chromatography
Description: Specifically, this was discovered by the inventors in the following compound preparation. The intermediate structure F, that directly precedes the final product of the unstable compound, was prepared according to the route below. All intermediates A-F were stable and isolable using techniques known to those skilled in the art.
Intermediate F, shown in the scheme above, was reacted with intermediate G using standard coupling conditions that are known to those skilled in the art. The reaction mixture was analyzed via HPLC/MS to monitor the formation of a peak corresponding to the compound H. While this peak formed within hours of initiating the reaction below, the peak progressively disappeared during workup and chromatography, until it no longer was present. The lack of stability of the putative compound originates from the position of the nitrogen within the fused ring-system described above. This position, which is adjacent to the oxygen-bearing carbon in the 5-substituted-1H-pyrrolo[2,3-c]pyridine ring system shown below and described above, makes the compound H unstable.

Sequence of GST-Bcl-2 (P10415 whole entry): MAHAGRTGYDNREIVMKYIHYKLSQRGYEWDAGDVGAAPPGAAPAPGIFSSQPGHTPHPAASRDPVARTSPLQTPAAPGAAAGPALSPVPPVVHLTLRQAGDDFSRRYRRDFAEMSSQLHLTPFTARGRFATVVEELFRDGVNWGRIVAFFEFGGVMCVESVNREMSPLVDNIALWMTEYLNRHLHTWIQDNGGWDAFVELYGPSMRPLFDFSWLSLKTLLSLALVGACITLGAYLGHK

| stability [4] | Compound | Ki [1] [nM] | EC50 [2] [nM] | sensitivity of RS4; 11 cells to the inhibitor [3] |
| --- | --- | --- | --- | --- |
| – | COC1(C)CCC(c2ccc(Cl)cc2)=C(CN2CCN(c3ccc(C(=O)NS(=O)(=O)c4ccc(NC[C@H]5CC[C@@](C)(O)CC5)c([N+](=O)[O-])c4)c(Oc4cnc5[nH]ccc5c4)c3)CC2)C1 (stereo partly drawn) [Example 377, 4-(4-{[2-(4-chlorophenyl)-5-methoxy-5-methylcyclohex-1-en-1-yl]methyl}piperazin-1-yl)-N-[(4-{[(trans-4-hydroxy-4-methylcyclohexyl)methyl]amino}-3-nitrophenyl)sulfonyl]-2-(1H-pyrrolo[2,3-b]pyridin-5-yloxy)benzamide] | < 0.001 | – | – |
| – | 4-(4-{[2-(4-chlorophenyl)-4,4-dimethylcyclohex-1-en-1-yl]methyl}piperazin-1-yl)-N-{[4-({[(Z)-4-hydroxy-1-adamantyl]methyl}amino)-3-nitrophenyl]sulfonyl}-2-(1H-pyrrolo[2,3-b]pyridin-5-yloxy)benzamide [Example 200] | < 0.01 | 11 | – |
| – | CC1(C)CCC(CN2CCN(c3ccc(C(=O)NS(=O)(=O)c4cnc(NC[C@H]5CC[C@](C)(O)CC5)c([N+](=O)[O-])c4)c(Oc4cnc5[nH]ccc5c4)c3)CC2)=C(c2ccc(Cl)cc2)C1 [Example 376, 4-(4-{[2-(4-chlorophenyl)-4,4-dimethylcyclohex-1-en-1-yl]methyl}piperazin-1-yl)-N-[(6-{[(cis-4-hydroxy-4-methylcyclohexyl)methyl]amino}-5-nitropyridin-3-yl)sulfonyl]-2-(1H-pyrrolo[2,3-b]pyridin-5-yloxy)benzamide] | < 0.001 | – | – |
| – | 4-(4-{[2-(4-chlorophenyl)-4,4-dimethylcyclohex-1-en-1-yl]methyl}piperazin-1-yl)-N-[(4-{[(3R)-1-(2-fluoroethyl)pyrrolidin-3-yl]amino}-3-nitrophenyl)sulfonyl]-2-(1H-pyrrolo[2,b]pyridin-5-yloxy)benzamide [Example 183] | < 0.01 | 17.5 | – |
| – | CC1(C)CCC(CN2CCN(c3ccc(C(=O)NS(=O)(=O)c4ccc(NC[C@H]5CC[C@@](C)(O)CC5)c([N+](=O)[O-])c4)c(Oc4cnc5[nH]ccc5c4)c3)CC2)=C(c2ccc(Cl)cc2)C1 [Example 337, 4-(4-{[2-(4-chlorophenyl)-4,4-dimethylcyclohex-1-en-1-yl]methyl}piperazin-1-yl)-N-[(4-{[(trans-4-hydroxy-4-methylcyclohexyl)methyl]amino}-3-nitrophenyl)sulfonyl]-2-(1H-pyrrolo[2,3-b]pyridin-5-yloxy)benzamide] | – | 1.76 | – |
| – | C[C@]1(O)CC[C@@H](COc2ncc(S(=O)(=O)NC(=O)c3ccc(N4CCN(CC5=C(c6ccc(Cl)cc6)CC6(CC5)CC6)CC4)cc3Oc3cnc4[nH]ccc4c3)cc2Cl)CC1 [Example 341, N-({5-chloro-6-[(trans-4-hydroxy-4-methylcyclohexyl)methoxy]pyridin-3-yl}sulfonyl)-4-(4-{[5-(4-chlorophenyl)spiro[2.5]oct-5-en-6-yl]methyl}piperazin-1-yl)-2-(1H-pyrrolo[2,3-b]pyridin-5-yloxy)benzamide] | < 0.01 | 31.7 | – |
| – | CC1(C)CCC(CN2CCN(c3ccc(C(=O)NS(=O)(=O)c4ccc(OC[C@H]5CC[C@@](C)(O)CC5)c(Cl)c4)c(Oc4cnc5[nH]ccc5c4)c3)CC2)=C(c2ccc(Cl)cc2)C1 [Example 362, N-({3-chloro-4-[(trans-4-hydroxy-4-methylcyclohexyl)methoxy]phenyl}sulfonyl)-4-(4-{[2-(4-chlorophenyl)-4,4-dimethylcyclohex-1-en-1-yl]methyl}piperazin-1-yl)-2-(1H-pyrrolo[2,3-b]pyridin-5-yloxy)benzamide] | 0.016 | 31.7 | – |
| – | CN(C)CC[C@H](CSc1ccccc1)Nc1ccc(S(=O)(=O)NC(=O)c2ccc(N3CCN(Cc4ccccc4-c4ccc(Cl)cc4)CC3)cc2)cc1[N+](=O)[O-] [ABT-737, N-(4-(4-((4′-chloro(1,1′-biphenyl)-2-yl)methyl)piperazin-1-yl)benzoyl)-4-(((1R)-3-(dimethylamino)-1-((phenylsulfanyl)methyl)propyl)amino)-3-nitrobenzenesulfonamide] | – | – | sensitive |
| – | 4-(4-{[2-(4-chlorophenyl)-4,4-dimethylcyclohex-1-en-1-yl]methyl}piperazin-1-yl)-N-({3-(pentafluoro-lambda-6-sulfanyl)-4-[(tetrahydro-2H-pyran-4-ylmethyl)amino]phenyl}sulfonyl)-2-(1H-pyrrolo[2,3-b]pyridin-5-yloxy)benzamide [Example 233] | 1.65 | > 1000 | – |
| unstable | CC1(C)CCC(CN2CCN(c3ccc(C(=O)NS(=O)(=O)c4ccc(NCC5CCOCC5)c([N+](=O)[O-])c4)c(Oc4cc5cc[nH]c5cn4)c3)CC2)=C(c2ccc(Cl)cc2)C1 [compound H] | – | – | – |
| – | CC1(C)CCC(CN2CCN(c3ccc(C(=O)NS(=O)(=O)c4ccc(OCC5COCCN5C5CCOCC5)c([N+](=O)[O-])c4)c(Oc4cnc5[nH]ccc5c4)c3)CC2)=C(c2ccc(Cl)cc2)C1 (stereo not drawn) [Example 104, 4-(4-{[2-(4-chlorophenyl)-4,4-dimethylcyclohex-1-en-1-yl]methyl}piperazin-1-yl)-N({3-nitro-4-[(4-tetrahydro-2H-pyran-4-ylmorpholin-3-yl)methoxy]phenyl}sulfonyl)-2-(1H-pyrrolo[2,3-b]pyridin-5-yloxy)benzamide] | 0.016 | 71.2 | – |
| – | CC[C@]1(O)CC[C@H](CNc2ccc(S(=O)(=O)NC(=O)c3ccc(N4CCN(CC5=C(c6ccc(Cl)cc6)CC(C)(C)CC5)CC4)cc3Oc3cnc4[nH]ccc4c3)cc2[N+](=O)[O-])CC1 [Example 359, 4-(4-{[2-(4-chlorophenyl)-4,4-dimethylcyclohex-1-en-1-yl]methyl}piperazin-1-yl)-N-[(4-{[(cis-4-ethyl-4-hydroxycyclohexyl)methyl]amino}-3-nitrophenyl)sulfonyl]-2-(1H-pyrrolo[2,3-b]pyridin-5-yloxy)benzamide] | < 0.01 | – | – |
| – | CC1(C)CCC(CN2CCN(c3ccc(C(=O)NS(=O)(=O)c4cnc(NC[C@H]5CC[C@@](C)(O)CC5)c([N+](=O)[O-])c4)c(Oc4cnc5[nH]ccc5c4)c3)CC2)=C(c2ccc(Cl)cc2)C1 [Example 371, 4-(4-{[2-(4-chlorophenyl)-4,4-dimethylcyclohex-1-en-1-yl]methyl}piperazin-1-yl)-N-[(6-{[(trans-4-hydroxy-4-methylcyclohexyl)methyl]amino}-5-nitropyridin-3-yl)sulfonyl]-2-(1H-pyrrolo[2,3-b]pyridin-5-yloxy)benzamide] | < 0.001 | – | – |
| – | 4-(4-{[2-(4-chlorophenyl)-4,4-dimethylcyclohex-1-en-1-yl]methyl}piperazin-1-yl)-N-{[4-({[(E)-4-hydroxy-1-adamantyl]methyl}amino)-3-nitrophenyl]sulfonyl}-2-(1H-pyrrolo[2,3-b]pyridin-5-yloxy)benzamide [Example 199] | < 0.01 | 5.06 | – |
| – | 4-(4-{[2-(4-chlorophenyl)-4,4-dimethylcyclohex-1-en-1-yl]methyl}piperazin-1-yl)-N-{[4-({[cis-3-morpholin-4-ylcyclopentyl]methyl}amino)-3-nitrophenyl]sulfonyl}-2-(1H-pyrrolo[2,3-b]pyridin-5-yloxy)benzamide [Example 188] | – | 16.4 | – |
| – | CC1(C)CCC(CN2CCN(c3ccc(C(=O)NS(=O)(=O)c4cnc(OC[C@]5(F)CC[C@@H](O)CC5)c(Cl)c4)c(Oc4cnc5[nH]ccc5c4)c3)CC2)=C(c2ccc(Cl)cc2)C1 [Example 350, N-({5-chloro-6-[(cis-1-fluoro-4-hydroxycyclohexyl)methoxy]pyridin-3-yl}sulfonyl)-4-(4-{[2-(4-chlorophenyl)-4,4-dimethylcyclohex-1-en-1-yl]methyl}piperazin-1-yl)-2-(1H-pyrrolo[2,3-b]pyridin-5-yloxy)benzamide] | < 0.01 | – | – |
| – | CCC1(O)CCC(CNc2ccc(S(=O)(=O)NC(=O)c3ccc(N4CCN(CC5=C(c6ccc(Cl)cc6)CC(C)(C)CC5)CC4)cc3Oc3cnc4[nH]ccc4c3)cc2[N+](=O)[O-])CC1 (stereo not drawn) [Example 358, 4-(4-{[2-(4-chlorophenyl)-4,4-dimethylcyclohex-1-en-1-yl]methyl}piperazin-1-yl)-N-[(4-{[(trans-4-ethyl-4-hydroxycyclohexyl)methyl]amino}-3-nitrophenyl)sulfonyl]-2-(1H-pyrrolo[2,3-b]pyridin-5-yloxy)benzamide] | < 0.01 | – | – |
